Measurements reported in patent US12551565B2, “CD44 targeted multi-arm conjugate” (priority 2019, dated 2026).

Test system: human small cell lung cancer cell NCI-H446
Assay: Xenograft model of human small cell lung cancer cell NCI-H446 in nude mice
Assay type: in vivo, BALB/c nude mice
Details: tail vein injection, QW×3, 6 mg·kg^−1

For `CCc1c2c(nc3ccc(OC(=O)N4CCC(N5CCCCC5)CC4)cc13)-c1cc3c(c(=O)n1C2)COC(=O)[C@]3(O)CC` [Irinotecan], the “Relative tumor proliferation rate (% T/C)” value was 66.0%.
